Data reported in the supplement of paper PMC11628255, “Interference of metal ions on the bioluminescent signal of firefly, Renilla, and NanoLuc luciferases in high-throughput screening assays” (Frontiers in Chemistry, 2024).

Experiments:
Experiment in all cases: normalised percent inhibition of luminescence (vs positive and negative controls); higher = stronger inhibition
[1] = test system: Renilla luciferase (RLuc)
Protocol: (§1)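 Concentration-response (>=11 concentrations) of metal salts on purified FLuc, NLuc or RLuc luminescence in screening (SC) or 100 mM HEPES (H) buffer; salt pre-incubated with enzyme 10 min at RT, read 10 min after substrate. Normalised percent inhibition vs plate positive (PTC-124, isradipine, BTS) and DMSO negative controls; triplicate wells.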

[2] = test system: firefly luciferase (FLuc)
Protocol: as §1

[3] = test system: NanoLuc luciferase (NLuc)
Protocol: as §1

[Cl][Fe][Cl] [iron(II) chloride]
normalised percent inhibition [%]
Details | [1] | [2] | [3]
metal salt concentration 0.0001 mM, 100 mM HEPES buffer | -50 | -43.3 | -0.558
metal salt concentration 0.00025 mM, 100 mM HEPES buffer | -20.5 | -33.6 | -2.01
metal salt concentration 0.0005 mM, 100 mM HEPES buffer | -32.5 | -33.5 | -2.14
metal salt concentration 0.001 mM, 100 mM HEPES buffer | -19.3 | -45.9 | -0.324
metal salt concentration 0.002 mM, screening conditions buffer | -4.21 | -3.52 | -2.42
metal salt concentration 0.005 mM, screening conditions buffer | 1.72 | 1.02 | 1.43
metal salt concentration 0.01 mM, screening conditions buffer | -1.72 | 2 | 5.7
metal salt concentration 0.02 mM, screening conditions buffer | 16.1 | 1.67 | -0.122
metal salt concentration 0.025 mM, 100 mM HEPES buffer | 16.3 | 53.6 | 3.65
metal salt concentration 0.05 mM, 100 mM HEPES buffer | 43.1 | 99.99 | 5.35
metal salt concentration 0.05 mM, screening conditions buffer | -2.31 | 3.62 | -5.75
metal salt concentration 0.1 mM, 100 mM HEPES buffer | 86.8 | 100.4 | 17.2
metal salt concentration 0.1 mM, screening conditions buffer | 54.2 | 14.5 | 22.5
metal salt concentration 0.2 mM, screening conditions buffer | 71.6 | 22.9 | 40.4
metal salt concentration 0.5 mM, 100 mM HEPES buffer | 105 | 99.99 | 61.9
metal salt concentration 0.5 mM, screening conditions buffer | 84.8 | 98 | 64
metal salt concentration 1 mM, 100 mM HEPES buffer | 103 | 100.5 | 85.4
metal salt concentration 1 mM, screening conditions buffer | 93.3 | 100.7 | 96
metal salt concentration 2.5 mM, 100 mM HEPES buffer | 108.1 | 100.2 | 99.74
metal salt concentration 2.5 mM, screening conditions buffer | 105 | 99.42 | 151
metal salt concentration 5 mM, 100 mM HEPES buffer | 108 | 100.3 | 101.7
metal salt concentration 5 mM, screening conditions buffer | 106 | 100.9 | 160.2

O.O.O.O.O.O.O.O=S(=O)([O-])[O-].[Mg+2] [magnesium sulfate]
normalised percent inhibition [%], 100 mM HEPES buffer
Details | [1] | [2] | [3]
metal salt concentration 0.0001 mM | -6.9 | -19.2 | 6.62
metal salt concentration 0.00025 mM | -4.68 | -27.4 | 1.39
metal salt concentration 0.0005 mM | -11.6 | -11 | -0.0243
metal salt concentration 0.001 mM | -17 | -24 | -0.202
metal salt concentration 0.025 mM | -30.1 | -31.5 | -2.3
metal salt concentration 0.05 mM | -11.6 | -6.49 | 0.502
metal salt concentration 0.1 mM | -22.7 | -20 | 1.8
metal salt concentration 0.5 mM | -0.986 | -19.2 | 1.22
metal salt concentration 1 mM | -23.4 | -17.2 | -4.91
metal salt concentration 2.5 mM | -40.4 | -12.5 | -6.56
metal salt concentration 5 mM | -22.4 | 4.85 | -5.03
